Source: ChEMBL document CHEMBL6103554, “Neratinib derivative 7A induces apoptosis in colon cancer cells via the p53 pathway” (Bioorg Med Chem Lett, 2025)
Calls of active or inactive are those of the source. No cut-off for these calls is given here.

Experiments:
HeLa = assay: Cytotoxicity against human HeLa cells assessed as inhibition rate incubated for 48 hrs by MTT; format: functional, cell-based
HCT-116 [1] = assay: Inhibition of cell migration in human HCT-116 cells assessed as repair capacity at 5 to 10 uM measured upto 48 hrs by scratch assay; format: functional, cell-based; settings: dose 5-10 µM
HCT-116 [2] = assay: Induction of DNA damage in human HCT-116 cells assessed as upregulation of gamma-H2AX level incubated for 24 hrs by immunoblotting analysis; format: functional, cell-based; settings: dose 2.5-10 µM
[3] = target: Cellular tumor antigen p53 (Homo sapiens) (UniProt P04637); assay: Activation of p53 signaling pathway in human HCT-116 cells by GSEA analysis; format: cell-based; settings: filed as activator
A498 = assay: Cytotoxicity against human A498 cells assessed as inhibition rate incubated for 48 hrs by MTT; format: functional, cell-based; settings: A498, 48 h
HCT-116 [4] = assay: Induction of DNA damage in human HCT-116 cells assessed as downregulation of BCL2 level at 10 uM incubated for 24 hrs by immunoblotting analysis; format: functional, cell-based
HCT-116 [5] = assay: Inhibition of cell adhesion in human HCT-116 cells at 5 uM; format: functional, cell-based
MDA-MB-231 = assay: Cytotoxicity against human MDA-MB-231 cells assessed as inhibition rate incubated for 48 hrs by MTT; format: functional, cell-based; settings: MDA-MB-231, 48 h
HCT-116 [6] = assay: Cytotoxicity against human HCT-116 cells assessed as inhibition rate incubated for 48 hrs by MTT; format: functional, cell-based; settings: HCT-116, 48 h
HCT-116 [7] = assay: Antitumor activity against human HCT116 cells xenografted in chick embryo chorioallantoic membrane assessed as reduction in angiogenesis by CAM assay; format: functional, cell-based; settings: dose 5-10 µM
HCT-116 [8] = assay: Induction of DNA damage in human HCT-116 cells assessed as upregulation of gamma-H2AX level at 10 uM by immunoblotting analysis; format: functional, cell-based
HCT-116 [9] = assay: Induction of DNA damage in human HCT-116 cells assessed as upregulation of BAX level at 10 uM incubated for 24 hrs by immunoblotting analysis; format: functional, cell-based
HCT-116 [10] = assay: Antitumor activity against human HCT116 cells xenografted in chick embryo chorioallantoic membrane assessed as reduction in tumor volume by CAM assay; format: functional, cell-based; settings: dose 5-10 µM
HCT-116 [11] = assay: Induction of DNA damage in human HCT-116 cells assessed as upregulation of p53 level at 10 uM incubated for 24 hrs by immunoblotting analysis; format: functional, cell-based
HCT-116 [12] = assay: Activation of TNFR-mediated TNF signaling pathway in human HCT-116 cells by GSEA analysis; format: cell-based; settings: filed as activator
HCT-116 [13] = assay: Inhibition of cell adhesion in human HCT-116 cells at 10 uM; format: functional, cell-based
HCT-116 [14] = assay: Induction of DNA damage in human HCT-116 cells assessed as upregulation of p53 level at 5 uM incubated for 24 hrs by immunofluorescence based analysis; format: functional, cell-based
HCT-116 [15] = assay: Inhibition of cell invasion in human HCT-116 cells at 5 uM by Transwell assay; format: functional, cell-based
HCT-116 [16] = assay: Inhibition of cell proliferation in human HCT-116 cells at 10 uM by colony formation assay relative to control; format: functional, cell-based
HCT-116 [17] = assay: Induction of DNA damage in human HCT-116 cells assessed as upregulation of p53 level at 10 uM incubated for 24 hrs by immunofluorescence based analysis; format: functional, cell-based
HCT-116 [18] = assay: Induction of DNA damage in human HCT-116 cells assessed as upregulation of p21 level incubated for 24 hrs by PCR analysis; format: functional, cell-based; settings: dose 2.5-10 µM

Sequence of Cellular tumor antigen p53 (Homo sapiens) (P04637 whole entry, looked up): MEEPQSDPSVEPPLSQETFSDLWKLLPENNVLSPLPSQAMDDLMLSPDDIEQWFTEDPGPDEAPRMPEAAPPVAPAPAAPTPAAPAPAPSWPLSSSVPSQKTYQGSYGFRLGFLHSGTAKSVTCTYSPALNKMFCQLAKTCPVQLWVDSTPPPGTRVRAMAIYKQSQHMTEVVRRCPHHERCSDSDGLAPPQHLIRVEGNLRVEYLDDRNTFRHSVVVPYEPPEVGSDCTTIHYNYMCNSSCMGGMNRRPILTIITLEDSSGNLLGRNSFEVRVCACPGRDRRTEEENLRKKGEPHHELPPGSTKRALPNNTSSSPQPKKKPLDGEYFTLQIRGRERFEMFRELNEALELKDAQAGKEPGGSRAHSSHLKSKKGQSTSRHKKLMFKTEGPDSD

SMILES	IC50 (HeLa)	Activity (HCT-116 [1])	IC50 (A498)	IC50 (MDA-MB-231)	IC50 (HCT-116 [6])	inhibition (HCT-116 [13])	inhibition (HCT-116 [16])	further results
O=C(Nc1ccc(OCc2ccccn2)c(Cl)c1)c1ccc(CN2CCN(C(=O)C3CC3)CC2)cc1	13.5 µM	Dose-dependent-effect; Stronger Inhibition	18.5 µM	17.8 µM	7.21 µM	Active	Active; Significantly Decreased Colony Formation	Activity (HCT-116 [2]): Dose-dependent-effect; Activity [3]: Active; Activity (HCT-116 [4]): Active; inhibition (HCT-116 [5]): Active; Activity (HCT-116 [7]): Dose-dependent-effect; Activity (HCT-116 [8]): Time-dependent-effect; Activity (HCT-116 [9]): Active; Activity (HCT-116 [10]): Dose-dependent-effect; Activity (HCT-116 [11]): Active; Activity (HCT-116 [12]): Active; Activity (HCT-116 [14]): Active; inhibition (HCT-116 [15]): Active; Activity (HCT-116 [17]): Active; Activity (HCT-116 [18]): Dose-dependent-effect
CCOc1cc2ncc(C#N)c(Nc3ccc(OCc4ccccn4)c(Cl)c3)c2cc1NC(=O)/C=C/CN(C)C [NERATINIB]	18.2 µM	Active	19.5 µM	27.7 µM	17.3 µM	Active	Active	–
